According to PMC2151574 (The Journal of General Physiology, 2006):
Several values for one entry are separate records, joined by “and”; a condition that tells them apart may be missing. Equal values may be shown once. Entries after “also recorded” stand apart in the source; their conditions may differ. Read-outs that look alike come from different tables or passages of the source. Where a SMILES comes first, the peptide text is derived from it.

Tests used:
BK channels [1] = conditions: cited from earlier work; for time dependence of block of BK currents: internal
[2] = tested on: S6/2-KcsA BK channel construct; type: cell-based, mouse
[3] = biological target: T1, E321N, E324N mutant BK channel (Mus musculus, UniProt Q08460, E386N/E389N); type: cell-based; conditions: for decrease of apparent affinity of block in E321N, E324N mutant vs wild type: macroscopic currents
T1 sequence (Q08460 66-1209 E386N/E389N limits assumed): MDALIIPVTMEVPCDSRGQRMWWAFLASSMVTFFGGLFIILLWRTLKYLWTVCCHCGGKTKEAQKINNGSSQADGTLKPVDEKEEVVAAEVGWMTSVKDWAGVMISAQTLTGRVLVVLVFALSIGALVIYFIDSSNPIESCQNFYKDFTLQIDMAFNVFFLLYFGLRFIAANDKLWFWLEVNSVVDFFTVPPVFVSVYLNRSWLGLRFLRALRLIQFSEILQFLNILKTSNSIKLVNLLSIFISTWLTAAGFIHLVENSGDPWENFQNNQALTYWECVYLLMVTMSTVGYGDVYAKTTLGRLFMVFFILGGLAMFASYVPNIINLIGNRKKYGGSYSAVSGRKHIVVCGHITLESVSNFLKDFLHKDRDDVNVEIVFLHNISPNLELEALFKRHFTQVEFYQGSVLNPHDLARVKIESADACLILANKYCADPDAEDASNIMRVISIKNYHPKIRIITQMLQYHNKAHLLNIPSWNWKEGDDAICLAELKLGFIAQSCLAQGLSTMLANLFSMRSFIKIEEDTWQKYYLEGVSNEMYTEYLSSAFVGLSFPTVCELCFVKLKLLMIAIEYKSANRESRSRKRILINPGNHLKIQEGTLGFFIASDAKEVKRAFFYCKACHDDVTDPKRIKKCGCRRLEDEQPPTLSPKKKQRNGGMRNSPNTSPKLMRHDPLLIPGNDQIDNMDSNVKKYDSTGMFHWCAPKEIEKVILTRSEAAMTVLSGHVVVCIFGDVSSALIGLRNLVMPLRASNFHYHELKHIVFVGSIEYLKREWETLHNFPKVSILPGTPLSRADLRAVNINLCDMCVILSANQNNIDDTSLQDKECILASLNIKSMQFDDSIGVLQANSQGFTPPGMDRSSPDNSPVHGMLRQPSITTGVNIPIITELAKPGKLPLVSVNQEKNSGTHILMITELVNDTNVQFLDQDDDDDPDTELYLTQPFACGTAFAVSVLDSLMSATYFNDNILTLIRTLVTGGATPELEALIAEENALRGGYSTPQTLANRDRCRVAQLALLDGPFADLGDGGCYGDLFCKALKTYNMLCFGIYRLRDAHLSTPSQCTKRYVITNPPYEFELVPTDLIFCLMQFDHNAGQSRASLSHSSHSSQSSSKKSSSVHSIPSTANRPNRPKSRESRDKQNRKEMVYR

[4] = biological target: wild-type BK channel (mslo, mbr5) (Mus musculus, UniProt Q08460); assay: Macroscopic block of wild-type BK currents, inside-out patch clamp; type: cell-based; conditions: for time constant of block, τfast (double exponential fit) / time constant of block, τslow (double exponential fit): inside-out patch, 22°C, holding potential −80 mV
Sequence of wild-type BK channel (mslo, mbr5) (Q08460 66-1209 limits assumed): as the sequence (Q08460 66-1209 E386N/E389N limits assumed) above, with N321E, N324E counted along it

[5] = biological target: T1, E321N, E324N mutant BK channel; assay: Single channel recordings, E321N, E324N mutant; type: cell-based
[6] = biological target: S6/2-KcsA BK channel construct (Mus musculus, UniProt Q08460, A378T/A381G/E386A/E389T/I387L/I388A/I391F/L377I/L390W/M379S/P385A/S382L/V384T/Y383V); type: cell-based
Sequence of S6/2-KcsA BK channel construct (Mus musculus, UniProt Q08460, A378T/A381G/E386A/E389T/I387L/I388A/I391F/L377I/L390W/M379S/P385A/S382L/V384T/Y383V) (Q08460 28-1196 isoform Q08460-2 with the stated changes): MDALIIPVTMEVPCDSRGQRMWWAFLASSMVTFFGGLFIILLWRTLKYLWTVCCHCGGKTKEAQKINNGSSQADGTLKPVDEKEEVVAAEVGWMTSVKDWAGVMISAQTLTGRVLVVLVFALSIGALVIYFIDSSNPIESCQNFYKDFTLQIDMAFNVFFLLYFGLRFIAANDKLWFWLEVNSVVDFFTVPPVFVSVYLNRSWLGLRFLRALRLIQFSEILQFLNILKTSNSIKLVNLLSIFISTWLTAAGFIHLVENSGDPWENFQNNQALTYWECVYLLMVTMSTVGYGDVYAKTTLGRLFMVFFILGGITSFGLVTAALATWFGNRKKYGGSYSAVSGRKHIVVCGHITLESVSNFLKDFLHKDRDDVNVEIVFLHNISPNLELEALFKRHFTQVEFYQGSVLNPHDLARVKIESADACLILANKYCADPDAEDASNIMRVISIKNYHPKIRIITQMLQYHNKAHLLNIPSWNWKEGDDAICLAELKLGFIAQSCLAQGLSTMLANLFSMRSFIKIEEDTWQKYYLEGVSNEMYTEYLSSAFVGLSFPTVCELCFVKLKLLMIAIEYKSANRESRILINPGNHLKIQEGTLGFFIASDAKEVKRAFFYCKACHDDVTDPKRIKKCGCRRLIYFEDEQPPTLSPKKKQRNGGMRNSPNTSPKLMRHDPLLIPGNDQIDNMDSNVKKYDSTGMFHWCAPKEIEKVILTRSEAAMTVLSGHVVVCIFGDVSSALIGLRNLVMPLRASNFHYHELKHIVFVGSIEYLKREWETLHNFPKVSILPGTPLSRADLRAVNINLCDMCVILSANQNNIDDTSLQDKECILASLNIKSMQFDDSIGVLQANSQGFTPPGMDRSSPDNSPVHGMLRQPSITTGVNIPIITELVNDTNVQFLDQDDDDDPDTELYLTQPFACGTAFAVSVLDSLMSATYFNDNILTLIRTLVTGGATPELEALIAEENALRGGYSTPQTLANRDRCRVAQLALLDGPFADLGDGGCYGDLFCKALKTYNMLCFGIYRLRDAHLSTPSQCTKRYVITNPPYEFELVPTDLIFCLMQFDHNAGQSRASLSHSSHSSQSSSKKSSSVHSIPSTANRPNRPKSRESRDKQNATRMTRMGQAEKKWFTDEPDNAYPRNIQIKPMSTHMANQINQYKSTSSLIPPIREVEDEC

[7] = biological target: T2, wild-type BK channel (mslo) (Mus musculus, UniProt Q08460); assay: Single channel recordings, wild-type BK channel; type: cell-based; conditions: n = 5
T2 sequence (Q08460 66-1209 limits assumed): as the sequence (Q08460 66-1209 E386N/E389N limits assumed) above, with N321E, N324E counted along it

[8] = tested on: other K^+ channels and CNG channels; conditions: most other K^+ channels; cited from earlier work
Shaker channels = conditions: ref Murrell-Lagnado and Aldrich, 1993b; cited from earlier work
BK channels [9] = conditions: cited from earlier work
[10] = tested on: Shaker channel (ShB Δ6-46); assay: Macroscopic block of Shaker currents, inside-out patch clamp; type: cell-based; conditions: identical conditions, holding potential −120 mV
[11] = biological target: T2, wild-type BK channel (mslo); assay: State dependence of EBP block in High and Low Ca2+; type: cell-based; conditions: 3 μM EBP
[12] = biological target: T2, wild-type BK channel (mslo); assay: Deactivation; type: cell-based
[13] = biological target: T2, wild-type BK channel (mslo); assay: Competition between TBA and EBP on macroscopic BK currents; type: cell-based
[14] = when roughly half of the channels are blocked
[15] = EBP at around half block concentration, 120 mV
[16] = 500 μM TBA on top of 3 μM EBP, compared with 3 μM EBP alone

CCCC[N+](CCCC)(CCCC)Cc1ccc(C(=O)c2ccccc2)cc1 [bbTBA]
access of blocker to BK channels (BK channels [1]; ref Wilkens and Aldrich, 2006): may not be restricted by a cytoplasmic gate

CCCCCCCCCC[N+](CC)(CC)CC [C10, Decyltriethylammonium]
block events in single S6/2-KcsA channels ([2]; 1 mM C10): too fast to resolve | Hill coefficient n (C10) ([3]; E321N, E324N mutant, 100 mV, eight patches): 1.01 | decrease of apparent affinity of block in E321N, E324N mutant vs wild type [3]: ~2.5 fold | time dependence of block of BK currents (BK channels [1]; ref Li and Aldrich, 2004): without apparent time dependence | Hill coefficient n (C10) ([4]; wild type, 100 mV, six patches): 0.97 | affinity of C10 relative to that of TBA ([4]; wild-type BK channels): ~30 times | association rate ([5]; E321N, E324N mutant, 40 μM C10, mean ± SD, n = 5): 12.5 ± 1.1 ms^−1 | dissociation rate of block (mean shut dwell time) ([5]; E321N, E324N mutant, 120 mV, mean ± SD, n = 5): 7.8 ± 0.6 ms^−1 | affinity of C10 vs TBA, S6/2-KcsA [6]: lower affinity than TBA | decrease of apparent affinity of C10 in S6/2-KcsA vs wild type [6]: almost two orders of magnitude | block of macroscopic S6/2-KcsA currents by C10 ([6]; 1 mM C10): about half the macroscopic currents | Hill coefficient n (C10) ([6]; S6/2-KcsA, 100 mV, five patches): 0.95 | association rate ([7]; 15 μM C10, mean ± SD): 9.0 ± 1.6 ms^−1 | dissociation rate of block (mean shut dwell time) ([7]; 120 mV, mean ± SD): 6.4 ± 0.5 ms^−1

MAAVAGLYGLGEDRQHRKKQ [ShBP]
block of E321N, E324N currents by ShBP ([3]; 100 μM ShBP, 120 mV (unpublished data), roughly estimated): ~20% | decrease in apparent affinity of ShBP by the double mutation ([3]; 120 mV): ~10 fold | type of block events in other K+ channels [8]: only long block events | dissociation rate, Shaker channels (Shaker channels): ~10 s⁻¹ | time constant of block, τfast (double exponential fit) ([4]; 30 μM ShBP, macroscopic): 2.0 ms | time constant of block, τslow (double exponential fit) ([4]; 30 μM ShBP, macroscopic): 13.1 ms | block of wild-type BK currents by ShBP ([4]; 100 μM ShBP, 120 mV): ~70% | time constant of block, τfast (double exponential fit) ([4]; 100 μM ShBP, macroscopic): 0.7 ms | time constant of block, τslow (double exponential fit) ([4]; 100 μM ShBP, macroscopic): 5.2 ms | type of block events in BK channels ([4]; native ShBP): mainly short block events | character of block events ([4]; when about half of the currents are blocked, macroscopic): the majority of the block events are short lived | time constant of block, faster of two components [4, 14]: ~2 ms | time constant of block, slower of two components [4, 14]: ~10 ms | lifetime of short block events, single BK channels (BK channels [9]; dominating, ref Foster et al., 1992, Toro et al., 1992, 1994): a few milliseconds | lifetime of long block events, single BK channels (BK channels [9]; rare, ref Foster et al., 1992, Toro et al., 1992, 1994): hundreds of milliseconds | dissociation rate for the short block of BK channels (BK channels [9]; ref Foster et al., 1992, Toro et al.): ~100 s⁻¹ | block of Shaker compared with BK currents [10]: slower block and higher apparent affinity

CSCC[C@H](NC(C)=O)C(=O)N[C@@H](C)C(=O)N[C@@H](C)C(=O)N[C@H](C(=O)N[C@@H](C)C(=O)NCC(=O)N[C@@H](CC(C)C)C(=O)N[C@@H](Cc1ccc(O)cc1)C(=O)NCC(=O)N[C@@H](CC(C)C)C(=O)NCC(=O)N[C@@H](CCCCN)C(=O)N[C@@H](CCCCN)C(=O)N[C@@H](CCCNC(=N)N)C(=O)N[C@@H](CCC(N)=O)C(=O)N[C@@H](Cc1c[nH]cn1)C(=O)N[C@@H](CCCNC(=N)N)C(=O)N[C@@H](CCCCN)C(=O)N[C@@H](CCCCN)C(=O)N[C@@H](CCC(N)=O)C(N)=O)C(C)C [EBP] (Ac-MAAVAGLYGLGKKRQHRKKQ-NH2)
block events in single S6/2-KcsA channels ([2]; 100 μM EBP, 120 mV): fails to result in resolvable block events | dissociation rate of EBP in S6/2-KcsA channels vs TBA ([2]; 100 μM each): even faster than that of TBA | block of E321N, E324N currents by EBP ([3]; 100 μM EBP, 120 mV): < 60% | decrease of apparent affinity of EBP block in double mutant vs wild type ([3]; 120 mV, from fitted dose responses): more than two orders of magnitude | Hill coefficient n (EBP) ([3]; E321N, E324N mutant, 120 mV, 11 patches): 0.72 | time constant of dominating component of block [3, 15]: a few milliseconds | time constant of very small component of block [3, 15]: hundreds of milliseconds | affinity for Shaker channels vs native ShBP (Shaker channels): much higher affinity for Shaker channels | association rate for Shaker channels vs native ShBP (Shaker channels): significantly higher association rate for Shaker channels than native ShBP | rising phase of BK currents (activation) vs control ([4]; 1 μM EBP, 120 mV): largely unchanged compared with control | time constant of block, τ (single exponential fit) ([4]; 1 μM EBP, 120 mV, macroscopic): 17.6 ms | fraction of remaining current (I/Io), voltage dependence ([4]; 1 μM EBP, end of 60-ms pulses, n = 6): decreases with increased membrane potentials | block of wild-type BK currents ([4]; 3 μM EBP): nearly complete block | single channel openings at steady-state block ([4]; 3 μM EBP): single channel openings to the full current level are clearly evident | time constant of block, τ (single exponential fit) ([4]; 3 μM EBP, 120 mV, macroscopic): 4.5 ms | time constant of block, τ (single exponential fit) ([4]; 10 μM EBP, 120 mV, macroscopic): 1.1 ms | 1/τ of block, concentration dependence ([4]; 1, 3 and 10 μM EBP, positive voltages (≥40 mV), n = 6): linearly dependent on the concentration of EBP | time constant of the single exponential decay ([4]; low concentration of EBP blocking roughly half of the channels (unpublished data)): ~100 ms | association rate constant (Kon), voltage dependence ([4]; slope of 1/τ vs EBP concentration): larger depolarizations resulting in higher association rate constants | Hill coefficient n (EBP) ([4]; wild type, 120 mV, 500 ms pulses, 5 patches): 1.16 | fraction of preblock, Po ∼0 ([11]; High Ca^2+, lower end of range −80 to 80 mV): ~0 | relative amplitude of the test current, change with prepulse ([11]; Low Ca^2+, −80 to 80 mV, Po ∼0): doesn't change much | state dependence of block ([11]; High and Low Ca^2+ solutions): much more favored in an open configuration than a closed one; also recorded: peptide binding is much more favored in an opened BK channel | deactivation of BK channels ([12]; 3 μM EBP, tail current compared with control): slowed compared with the control trace; also recorded: Deactivation of BK channels is slowed by EBP | normalized tail current time constant, τslow (double exponential fit) ([12]; 3 μM EBP, −160 mV after depolarization to 120 mV): 7.3 ms | normalized tail current time constant, τfast (double exponential fit) ([12]; 3 μM EBP, −160 mV after depolarization to 120 mV (control τ = 0.25 ms)): 0.37 ms | tail current time constant, slower component ([12]; EBP, negative potentials, relatively voltage insensitive): ~10 ms | tail current time constant, fast component ([12]; EBP, −60 mV): ~2 ms | tail current time constant, fast component ([12]; EBP, −160 mV): ~0.3 ms | off rate at negative potentials ([12]; from modeling tail currents with a C↔O↔B model): ~100 s⁻¹ | time constant of block, τ ([13]; 3 μM EBP alone): 2.8 ms | time constant of block, τ ([13]; 3 μM EBP plus 500 μM TBA): 5.6 ms | competition of TBA and EBP binding ([13]; 3 μM EBP, 500 μM TBA, positive potentials): mutually exclusive | duration of block events, single E321N, E324N channel ([5]; 100 μM EBP, 80 mV): mainly short block events lasting a few milliseconds | block of S6/2-KcsA current by EBP ([6]; 100 μM EBP, 120 mV, mean ± SD, n = 5): 23.0 ± 0.5% and ~20% | apparent affinity of EBP for S6/2-KcsA vs E321N, E324N double mutant ([6]; 120 mV): about threefold lower | apparent affinity of EBP for S6/2-KcsA vs wild-type BK ([6]; 120 mV): more than three orders of magnitude lower | type of block events, single BK channels (BK channels [9]; near 0 mV, ref Toro et al., 1994): mostly short block events; also recorded: predominantly short block events | affinity for BK channels (BK channels [9]; single channel, ref Toro et al., 1994): higher affinity for BK channels than ShBP

CCCC[N+](CCCC)(CCCC)CCCC [TBA, Tetrabutylammonium]
block of single S6/2-KcsA channels vs wild-type BK ([2]; 0.4 mM TBA): kinetically very similar | block of mutant currents by TBA ([3]; 20 mM TBA, E321N, E324N mutant): ~100% | Hill coefficient n (TBA) ([3]; E321N, E324N mutant, 120 mV, nine patches): 0.89 | decrease of apparent affinity of block in E321N, E324N mutant vs wild type [3]: ~2.5 fold | inhibition of BK current at steady state (BK channels [1]; 500 μM TBA, positive potentials, ref Li and Aldrich, 2004): ~50% | block of BK channels (BK channels [1]; internal TBA, "our previous study", ref Li and Aldrich, 2004): fast block of BK channels at submillimolar concentrations | time dependence of block of BK currents (BK channels [1]; ref Li and Aldrich, 2004): without apparent time dependence | Hill coefficient n (TBA) ([4]; wild type, 120 mV, five patches): 0.87 | reduction of peak current by added TBA [13, 16]: about half | slowing of time-dependent EBP block by added TBA [13, 16]: about twofold | single channel block in mutant vs wild type ([5]; 1 mM TBA in E321N, E324N mutant vs 0.4 mM in wild type, 120 mV): qualitatively very similar | affinity of TBA in S6/2-KcsA vs wild-type BK [6]: almost exactly the same affinity | block of macroscopic S6/2-KcsA currents by TBA ([6]; 100 μM TBA, 120 mV): ~20% | block of mutant currents by TBA ([6]; 20 mM TBA, S6/2-KcsA): ~100% | Hill coefficient n (TBA) ([6]; S6/2-KcsA, 120 mV, five patches): 0.97 | sensitivity of S6/2-KcsA channels to TBA ([6]; voltage ramp −80 to 200 mV, 0.3 and 10 mM TBA): sensitive to millimolar concentrations of TBA
